Experimental data from US20240424175A1, “ANTICOAGULANT COMPOUNDS COMPRISING CHELATING AGENTS AND CATIONIC ANTI-COAGULATION ENHANCERS AND METHODS AND DEVICES FOR THEIR USE” (Elixir Medical Corporation, priority 2021, published 2024).

Assays:
[1] = tested on: Human Aortic SMC (HAoSMC, ATCC, PCS-100-012); assay: HAoSMC cell proliferation assay (CellTiter Aqueous, 96-well); assay type: cell-based; settings: drug alone, various concentrations; 72 hours; FIGS. 1D-1E
Procedure: Cell proliferation assay was done in 96-well format. Low passage cells were trypsinized and seeded in 96 well plates at a density of ˜4000 cells/well. The cells are allowed to attach overnight in a CO2 incubator. Next day, the medium was removed and replaced with fresh complete medium containing various concentrations of the test compounds. The final concentration of vehicle (DMSO) in the test medium was 0.1%. After adding test compounds, the cells were incubated for 72 hours. Following this period, the medium was removed and then added fresh medium (100 μl) containing CellTiter Aqueous (1× concentration final) to the wells and incubated for 2 hours in the CO2 incubator. At the end of incubation measured fluorescence with a plate-reader. Controlled incubations with untreated cells and blank incubations containing only medium were included and tested similarly. Based on the cell viability assay the percentage inhibition of the cell proliferation was determined at the different concentrations of the drug tested.
Following the cell proliferation assay as indicated earlier, the percent cell proliferation inhibition was determined, and the assay results plotted to determine the IC50.

[2] = tested on: citrated sheep blood; assay: Activated clotting time (ACT) in calcium-reconstituted citrated sheep blood, Hemochron Response (Example 2); assay type: biochemical; settings: individual drug at 0.6 ng/mg; FIG. 2C
Procedure: The activated clotting time (ACT) evaluation of anticoagulants was performed in calcium-reconstituted sheep blood and recorded employing the Hemochron® Response device. […] A target amount of drug solution was then added into the test tube. […] The tube was gently shaken before being inserted into the Hemochron Response detector. The ACT read out was recorded and reported. The ACT of the control blood in the absence of any drug as first determined to establish a baseline. Then ACT was determined in the presence of different concentrations of the drug as a single component. Selected drug combinations were then tested to evaluate for potential synergy in action between the two drugs.

[3] = tested on: porcine coronary artery model; assay: Late lumen loss (LLL) by follow up angiography in porcine coronary artery model (Example 16); assay type: in vivo; settings: 14 mm stents, n = 3; smaller is better; bare metal control stent 0.17 ± 0.22
[4] = tested on: porcine coronary artery model; assay: Fibrin score, histopathology of stented arteries in porcine coronary artery model (Examples 16, 17); assay type: in vivo; settings: 14 mm stents, n = 3; score 0 to 3, smaller is better; bare metal control stent 1.02 ± 0.35
Procedure: The drug eluting stent systems containing different anticoagulants prepared as described in Example 11 were evaluated at 3 hours, 6 hours, 1 day, 3 days, 6 days, 7 days, or 28 days following implantation in a porcine coronary artery model.
After induction of anesthesia, the left or right femoral artery was accessed using standard techniques and an arterial sheath was introduced and advanced into the artery. Vessel angiography was performed under fluoroscopic guidance, a 7 Fr, guide catheter was inserted through the sheath and advanced to the appropriate location where intracoronary nitroglycerin was administered. An appropriate implantation segment of coronary artery was randomly selected and a 0.014″ guidewire inserted. Quantitative Coronary Angiography (QCA) was performed to document the results. The appropriately size stent was advanced to the deployment site. The balloon was inflated at a steady rate to a pressure sufficient to achieve a balloon to artery ratio of approximately 1.1 to 1.0.
Stented portions of coronary arteries were embedded in methyl methacrylate (MMA), then divided into a target of at least three blocks of approximately similar lengths for histology evaluation. Quantitative histopathological evaluation of stented artery sections was then performed and scored as indicated. For Fibrin formation, scores ranged from 0 to 3, with a score of 0 indicating absent or rare minimal spotting around struts of the stent, a score of 1 indicating the presence of fibrin in small amounts localized only around the struts, a score of 2 indicating the moderately abundant or denser presence of fibrin around and extending beyond the struts, and a score of 3 indicating the presence of abundant and dense fibrin and/or bridging of the fibrin between the struts. The mean score was calculated and reported. The mean of each section was then averaged to provide a mean fibrin score per stent. The smaller the fibrin score, the better efficacy.

[5] = tested on: Tissue factor generated antiplatelet; settings: cited from earlier work; for IC50 for Tissue factor generated antiplatelet: expressed in ng/mg
[6] = In vivo drug release, drug remaining on stent and tissue drug concentration of SS7-SS17 stents (Tables 12A-12D); settings: 28 D following implantation
Source text: The stented artery was cut longitudinally with surgical scissors. The stents were separated from the tissue.

[7] = tested on: citrated sheep blood; assay: Activated clotting time (ACT) of EDTA or other anti-coagulant compounds in citrated sheep blood (Example 4); assay type: biochemical
Procedure: The activated clotting time (ACT) evaluation of anticoagulants was performed in Calcium-reconstituted sheep blood and recorded employing the Hemochron® Response device. […] A target amount of EDTA or other anti-coagulant compounds solution was then added into the test tube. […] The tube was gently shaken before being inserted into the Hemochron Response detector. The ACT read out was recorded and reported.

[8] = tested on: fresh pig blood; assay: Activated clotting time (ACT) of EDTA or analogues in fresh pig blood (Example 3); assay type: biochemical; settings: for Clotting time: blood control 154
Procedure: The ACT measurements were made in fresh pig blood. 1.0 ml of fresh pig blood was added to a test tube containing an activator (Hemochron@Celite@ ACT tubes, Lot F8FTE026 from Accriva Diagnostics, Inc.). A target amount of drug solution was then added into the test tube. The test tube was gently swirled so that the blood and drug was well-mixed. 0.1 ml of 0.3M calcium chloride was then added. The tube was gently shaken before being inserted into the Hemochron Response detector. The ACT read out was recorded and reported. The ACT of the control blood in the absence of any drug as first determined to establish a baseline.

[9] = pH of 1 mg/ml EDTA or analogue in water or phosphate buffer; assay type: physicochemical
[10] = final concentration 67 ng/mg (66.7 μg/ml)
[11] = final concentration 100 ng/mg (100 μg/ml)
[12] = final concentration […] (133.3 μg/ml)
[13] = final concentration […] (166.7 μg/ml)
[14] = final drug concentration 200 ng/mg
[15] = 1 mg/ml in 0.01M pH 7.4 phosphate buffer, 21.8-22.3 °C
[16] = final drug concentration 500 ng/mg
[17] = final drug concentration 75 ng/mg
[18] = final drug concentration 100 ng/mg
[19] = final drug concentration 150 ng/mg
[20] = final drug concentration 300 ng/mg
[21] = final drug concentration 250 ng/mg

## COc1ccc(-n2nc(C(N)=O)c3c2C(=O)N(c2ccc(N4CCCCC4=O)cc2)CC3)cc1 [Apixaban]
[1]
  inhibition of HAoSMC proliferation: small to no inhibition
[2]
  ACT: 522

## CC1CNc2c(cccc2S(=O)(=O)N[C@@H](CCCNC(=N)N)C(=O)N2CC[C@@H](C)C[C@@H]2C(=O)O)C1 (stereo partly shown) [Argatroban]
[1]
  inhibition of HAoSMC proliferation: small to no inhibition
[3]
  LLL at day 7: not effective at inhibiting smooth muscle cell proliferation
[2]
  ACT: 301
[4]
  Fibrin score at day 7: not effective at inhibiting fibrin formation
[5]
  IC50: 79 nM
  IC50 for Tissue factor generated antiplatelet: 0.04 ng/mg
[6]
  Tissue drug concentration (ng/mg) in the stented segment tissue, Argatroban: about 1.69 ng/mg

## CCCCCCCCCCCCCC[N+](C)(C)Cc1ccccc1.[Cl-] [Benzyldimethyltetradecylammonium chloride]
[7]; [10]
  Clotting time: 316 s
  Increase in clotting time compared to control: 114 s
[7]; [11]
  Clotting time: 421 s
  Increase in clotting time compared to control: 219 s
[7]; [12]
  Clotting time: 983 s
  Increase in clotting time compared to control: 781 s
[7]; [13]
  Clotting time: 1370 s
  Increase in clotting time compared to control: 1168 s

## O=C(O)C(S)C(S)C(=O)O (stereo not shown) [Dimercaptosuccinic acid(DMSA), dimercaptosuccinic acid]
[8]; [14]
  Increase in clotting time compared to control: -3 s
  Clotting time: 151 s

## O=C([O-])CN(CCN(CC(=O)O)CC(=O)O)CC(=O)[O-].[K+].[K+] [EDTA dipotasium]
[9]; [15]
  pH: 6.93
[9]; 1 mg/ml in d-water, 21.8-22 °C
  pH: 6.25

## CC(=O)OCOC(=O)CN(CCN(CC(=O)OCOC(C)=O)CC(=O)OCOC(C)=O)CC(=O)OCOC(C)=O [EDTA tetra acetoxymethyl ester, tetra acetoxymethyl ester EDTA]
[8]; [16]
  Increase in clotting time compared to control: 4 s
  Clotting time: 158 s

## O=C([O-])CN(CCN(CC(=O)[O-])CC(=O)O)CC(=O)[O-].[Na+].[Na+].[Na+] [EDTA tri sodium, trisodium edetate]
[9]; [15]
  pH: 7.77
[9]; 1 mg/ml in d-water, 21.8-22 °C
  pH: 9.21

## O=C(O)CN(CCN(CC(=O)O)CC(=O)O)CC(=O)O [EDTA, ethylenediaminetetraacetic acid]
[8]; [17]
  Increase in clotting time compared to control: 25 s
  Clotting time: 179 s
[8]; [18]
  Increase in clotting time compared to control: 93 s
  Clotting time: 247 s
[8]; [19]
  Increase in clotting time compared to control: 121 s
  Clotting time: 275 s
[8]; [14]
  Increase in clotting time compared to control: >346 s

## O=C([O-])CN(CCN(CC(=O)[O-])CC(=O)O)CC(=O)O.[Na+].[Na+] [EDTA•2Na•2H2O, disodium edetate]
[9]; [15]
  pH: 6.92
[9]; 1 mg/ml in d-water, 21.8-22 °C
  pH: 6.42
[8]; [18]
  Increase in clotting time compared to control: 37 s
  Clotting time: 191 s
[8]; [14]
  Increase in clotting time compared to control: 110 s
  Clotting time: 264 s
[8]; [20]
  Increase in clotting time compared to control: 220 s
  Clotting time: 374 s
[8]; final drug concentration 300 ng/mg, blood control 154, listed as EDTA disodium salt
  Clotting time (sec): same trend

## O=C([O-])CN(CCN(CC(=O)[O-])CC(=O)[O-])CC(=O)[O-].[Na+].[Na+].[Na+].[Na+] [EDTA•4Na•xH2O, tetrasodium edetate]
[9]; [15]
  pH: 8.27
[9]; 1 mg/ml in d-water, 21.8-22 °C
  pH: 9.61
[8]; [18]
  Increase in clotting time compared to control: 50 s
  Clotting time: 204 s
[8]; [14]
  Increase in clotting time compared to control: 121 s
  Clotting time: 275 s
[8]; [21]
  Increase in clotting time compared to control: 175 s
  Clotting time: 329 s
[8]; [20]
  Increase in clotting time compared to control: >346 s
  Clotting time: >500 s
[8]; final drug concentration 300 ng/mg, blood control 154, listed as EDTA tetra sodium salt
  Clotting time (sec): same trend

## O=C(NC[C@H]1CN(c2ccc(N3CCOCC3=O)cc2)C(=O)O1)c1ccc(Cl)s1 [Rivaroxaban]
[3]
  LLL at day 7: not effective at inhibiting smooth muscle cell proliferation
[4]
  Fibrin score at day 7: effective at inhibiting fibrin formation
[5]
  IC50: 312 nM
  IC50 for Tissue factor generated antiplatelet: 0.136 ng/mg

## Dalteparin
[3]
  LLL at day 7: not effective at inhibiting smooth muscle cell proliferation
[4]
  Fibrin score at day 7: not effective at inhibiting fibrin formation
